Measurements taken from patent US10960005B2, “Treatment of relapsed and/or refractory solid tumors and non-hodgkin's lymphomas” (CELGENE QUANTICEL RESEARCH, INC., priority 2016, dated 2021).
Read-outs that look alike come from different tables or passages of the source.

Legend:
[1] = test system: LXFS 573 SCLC patient-derived xenograft; type: in vivo
NCI-H1417 SCLC xenograft = type: in vivo
[2] = Etoposide at 24 mg/kg/day SC days 1-3 + Vehicle
[3] = etoposide monotherapy 24 mg/kg SC
[4] = etoposide monotherapy 24 mg/kg SC QD×3

COc1cc([C@@H]2c3cc4c(cc3[C@@H](O[C@@H]3O[C@@H]5CO[C@@H](C)O[C@H]5[C@H](O)[C@H]3O)[C@H]3COC(=O)[C@H]23)OCO4)cc(OC)c1O [Etoposide, etoposide, reference compound]
% TGD [1, 2]: 50%
T-C [1, 2]: 21 days
median TTE [1, 2]: 63 days
SS (number of study survivors) ([1]; Etoposide at 24 mg/kg/day SC days 1-3 + Vehicle, Day 133, N=8): 0 (na)
% TGD [1, 3]: 50%
TGD [1, 3]: 21 days
% TGD (NCI-H1417 SCLC xenograft; 24 mg/kg Etoposide SC QD × 3): 92%
T-C (NCI-H1417 SCLC xenograft; 24 mg/kg Etoposide SC QD × 3): 24 days
median TTE (NCI-H1417 SCLC xenograft; 24 mg/kg Etoposide SC QD × 3): 50 days
% TGD (NCI-H1417 SCLC xenograft; [4]): 92%
TGD (NCI-H1417 SCLC xenograft; [4]): 24 days
